Reference: PMC6385087, “New Multitarget Hybrids Bearing Tacrine and Phenylbenzothiazole Motifs as Potential Drug Candidates for Alzheimer’s Disease” (Molecules, 2019)

Tests used:
Aβ1–42 self-aggregation = target: T1, Aβ1–42 self-aggregation (Homo sapiens, UniProt P05067); assay: Aβ1–42 self-aggregation inhibition, thioflavin T fluorescence assay; format: biochemical; settings: self-mediated Aβ42 aggregation, ThT fluorescence, CL = 40 μM, means of two experiments; for inhibition at 40 µM: read-out: Inhibition of Aβ-self-aggregation (%)
T1 construct: Commercially available Aβ1-42 peptide was obtained from Aldrich; purchased Aldrich
Procedure: […]. Since the compounds of this series presented some solubility problems in methanol, the assays were performed with ligands at concentrations of 40 µM, i.e., half of the concentration usually used (80 µM) in these assays. […]. […] So, it appears that introduction of a chloro substituent in TAC and/or a hydroxyl group in the carbon linker are not well suited for the interaction with β-sheet secondary structure of Aβ aggregates. […].
Commercially available Aβ1-42 peptide was obtained from Aldrich and stored at −20 °C. It was treated with 1,1,1,3,3,3-hexafluoropropan-2-ol (HFIP) to avoid self-aggregation and reserved. HFIP pre-treated Aβ1–42 samples were re-dissolved in CH3CN/Na2CO3 (300 µM)/NaOH (250 µM) (48.3:48.3:4.3, v/v/v) solvent mixture in order to have a stable stock solution; this solution (500 µM) was further diluted in phosphate buffer (0.215 M, pH 8.0) to obtain 40 µM solution. The ligand, which was previously dissolved in methanol, was further diluted in phosphate buffer to a final concentration of 40 µM. Aβ1–42 aggregation was determined by measuring the fluorescence emission of Thioflavin T dye, with a Cary Eclipse Varian fluorimeter (Molecular Devices, San José, CA, USA).
After incubation for 24 h at 37 °C, without stirring, the samples were added to a 96-well plate (BD Falcon) with 180 µL of 5 µM ThT in 50 mM glycine-NaOH (pH 8.5) buffer. Blank samples were prepared for each concentration in a similar way, devoid of peptide. As for the control, a sample of the peptide was incubated under identical conditions but without the inhibitor. After 5-min incubation with the dye, the ThT fluorescence was measured at the following wavelengths: 446 nm (excitation) and 486 nm (emission). The percent inhibition of the self-induced aggregation due to the presence of the test compound was calculated by Equation (2), in which IFi and IF0 corresponded to the fluorescence intensities, in the presence and the absence of the test compound, minus the fluorescence intensities due to the respective blanks. I% = 100 − (IFi/IF0 × 100)(2)
The reported values were obtained as the mean ± S.E.M. of two different experiments.

SH-SY5Y cells = assay: Dose-response screening for non-toxic concentration, MTT reduction; format: cell-based; settings: dose-response screening from 0.2 μM to 5 μM, 25 h
Procedure: The neuroprotective effect of TAC-PhBTA conjugates was evaluated using SH-SY5Y cells treated with Aβ1–42 peptides or ascorbate/iron. For each compound, a dose-response curve was performed to select a non-toxic concentration in order to analyze its neuroprotective effect (Figure 3).
SH-SY5Y human neuroblastoma cell line (ATCC-CRL-2266) grown in Dulbecco’s modified Eagle’s medium (DMEM) obtained from Gibco-Invitrogen (Life Technologies Ltd., Liverpool, UK) with 10% heat inactivated fetal calf serum, containing 50 U/mL penicillin, and 50 μg/mL streptomycin, under a humidified atmosphere of 95% air-5% CO2 at 37 °C. Cells were plated at 0.12 × 10^6 cells/mL for cell viability assay. […]. As a result we selected a 2.5 μM final concentration for compound 16; 0.5 μM final concentration for compound 17; 0.2 μM final concentration for compounds 14 and 15; and a 1 μM final concentration for compounds 19 and 18. […] The compounds were added to the cell media 1 h before the incubation with Aβ1–42 or ferrous sulfate/L-ascorbic acid. Aβ1–42 or ferrous sulfate/L-ascorbic acid where incubated alone or with the compound for an additional 24 h. Aβ1–42 was prepared as 276.9 μM stock in sterile water and added to the medium at 1 μM final concentration. Ferrous sulfate was freshly prepared as 0.36 M stock in water and added to the medium at 500 μM final concentration. L-Ascorbic Acid was freshly prepared as 80 mM stock in water and added to the medium at 5 mM final concentration. Aβ1–42 was purchased from Bachem (Torrance, CA, USA) and ferrous sulfate and L-ascorbic acid from Sigma Chemical Co (St. Louis, MO, USA).
Cell viability was determined by a MTT (3-(4,5-dimethylthiazol-2-yl)-2,5-diphenyltetrazolium bromide) reduction test. In viable cells, the enzyme succinate dehydrogenase metabolizes MTT into formazan that absorbs light at 570 nm. Following the cell treatment protocol the medium was aspirated and 0.5 mL MTT (0.5 mg/mL) was added to each well. The plate was then incubated at 37 °C for 1 h 30 min protected from light. At the end of the incubation period the formazan precipitates were solubilized with 0.5 mL of acidic isopropanol (0.04 M HCl/isopropanol). The absorbance was measured at 570 nm. Cell reduction ability was expressed as a percentage of untreated control cells.

T1 sequence (P05067 672-713 limits assumed): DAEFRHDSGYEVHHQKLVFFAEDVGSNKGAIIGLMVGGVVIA

Row | Structure (SMILES) | inhibition at 40 µM (Aβ1–42 self-aggregation) [%] | Highest non-toxic concentration selected (SH-SY5Y cells) [µM] | Inhibition of Aβ-self-aggregation (%) (Aβ1–42 self-aggregation; 40 µM)
1 | COc1cc(-c2nc3ccccc3s2)ccc1OCC(=O)NCCCNc1c2c(nc3ccccc13)CCCC2 [compound 16, 2-(4-(Benzo[d]thiazol-2-yl)-2-methoxyphenoxy)-N-(3-((1,2,3,4-tetrahydroacridin-9-yl)amino)propyl)acetamide] | 33.7 | 2.5 | –
2 | COc1cc(-c2nc3ccccc3s2)ccc1OCC(=O)NCCNc1c2c(nc3cc(Cl)ccc13)CCCC2 [compound 15, 2-(4-(Benzo[d]thiazol-2-yl)-2-methoxyphenoxy)-N-(2-((6-chloro-1,2,3,4 tetrahydroacridin-9-yl)amino)ethyl)acetamide] | 27 | 0.2 | –
3 | COc1cc(-c2nc3ccccc3s2)ccc1OCC(=O)NCC(O)CNc1c2c(nc3cc(Cl)ccc13)CCCC2 (stereo not shown) [compound 19, 2-(4-(Benzo[d]thiazol-2-yl)-2-methoxyphenoxy)-N-(3-((6-chloro-1,2,3,4-tetrahydroacridin-9-yl)amino)-2-hydroxypropyl)acetamide] | ~31 | 1 | 31.3
